Results published in ChEMBL document CHEMBL4334471, “Discovery of 1,8-disubstituted-[1,2,3]triazolo[4,5-c]quinoline derivatives as a new class of Hippo signaling pathway inhibitors” (Bioorg Med Chem Lett, 2019).

Columns and labels:
[1] = test system: Tyrosine-protein kinase ABL1 (Homo sapiens), P00519 [Q252H]; assay: Inhibition of human ABL1 Q252H mutant (27 to end residues) assessed as residual activity at 10 uM using EAIYAAPFAKKK as substrate incubated for 40 mins in presence of [gamma-33ATP] by scintillation counting based radiometry assay relative to control
[2] = molecular target: Aurora kinase C (Homo sapiens) (UniProt Q9UQB9); assay: Inhibition of recombinant human Aurora C (35 to end residues) assessed as residual activity at 10 uM using AKRRRLSSLRA as substrate incubated for 40 mins in presence of [gamma-33ATP] by scintillation counting based radiometry assay relative to control
[3] = test system: Tyrosine-protein kinase receptor UFO (Homo sapiens), P30530 [Q764R]; assay: Inhibition of recombinant human Axl Q764R mutant (473 to end residues) assessed as residual activity at 10 uM using KKSRGDYMTMQIG as substrate incubated for 40 mins in presence of [gamma-33ATP] by scintillation counting based radiometry assay relative to control
Chain of Tyrosine-protein kinase receptor UFO (Homo sapiens), P30530 [Q764R] (P30530 whole entry Q764R, the tested form may be a part): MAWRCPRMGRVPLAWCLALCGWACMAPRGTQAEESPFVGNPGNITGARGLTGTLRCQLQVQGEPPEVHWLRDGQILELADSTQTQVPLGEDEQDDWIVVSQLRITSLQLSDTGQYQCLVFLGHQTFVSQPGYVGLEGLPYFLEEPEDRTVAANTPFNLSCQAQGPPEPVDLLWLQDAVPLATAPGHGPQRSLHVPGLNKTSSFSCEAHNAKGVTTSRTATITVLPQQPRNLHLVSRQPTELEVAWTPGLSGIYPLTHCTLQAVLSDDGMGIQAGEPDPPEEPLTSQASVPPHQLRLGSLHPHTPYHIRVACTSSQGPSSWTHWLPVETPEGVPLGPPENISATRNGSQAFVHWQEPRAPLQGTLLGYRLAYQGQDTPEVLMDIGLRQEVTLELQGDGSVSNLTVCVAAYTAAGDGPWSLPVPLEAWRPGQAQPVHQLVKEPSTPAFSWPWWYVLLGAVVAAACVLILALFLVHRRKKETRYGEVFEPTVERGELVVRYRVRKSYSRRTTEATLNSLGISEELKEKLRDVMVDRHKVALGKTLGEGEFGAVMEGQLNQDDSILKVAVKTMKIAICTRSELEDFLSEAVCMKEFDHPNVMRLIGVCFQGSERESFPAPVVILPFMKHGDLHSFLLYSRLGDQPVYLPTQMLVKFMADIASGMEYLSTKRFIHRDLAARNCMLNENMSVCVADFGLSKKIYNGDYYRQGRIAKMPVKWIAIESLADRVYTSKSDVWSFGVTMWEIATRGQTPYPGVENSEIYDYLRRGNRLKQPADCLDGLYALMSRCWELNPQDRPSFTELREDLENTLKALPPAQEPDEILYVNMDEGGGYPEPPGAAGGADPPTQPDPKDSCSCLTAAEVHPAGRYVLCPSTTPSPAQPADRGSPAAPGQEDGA

[4] = molecular target: Bone morphogenetic protein receptor type-2 (Homo sapiens) (UniProt Q13873); assay: Inhibition of recombinant human BMPR2 (172 to 734 residues) assessed as residual activity at 10 uM using myelin basic protein as substrate incubated for 120 mins in presence of [gamma-33ATP] by scintillation counting based radiometry assay relative to control
[5] = molecular target: Serine/threonine-protein kinase BRSK1 (Homo sapiens) (UniProt Q8TDC3); assay: Inhibition of recombinant human BRSK1 ( 2 to end residues) assessed as residual activity at 10 uM using KKKVSRSGLYRSPSMPENLNRPR substrate incubated for 40 mins in presence of [gamma-33ATP] by scintillation counting based radiometry assay relative to control
[6] = molecular target: Cyclin-dependent kinase-like 1 (Homo sapiens) (UniProt Q00532); assay: Inhibition of recombinant full length human CDKL1 assessed as residual activity at 10 uM using RRRFRPASPLRGP as substrate incubated for 120 mins in presence of [gamma-33ATP] by scintillation counting based radiometry assay relative to control
[7] = molecular target: Casein kinase 2 (Homo sapiens) (UniProt P67870+P68400+P19784+Q8NEV1); assay: Inhibition of recombinant human CK2 assessed as residual activity at 10 uM in presence of [gamma-33ATP] by scintillation counting based radiometry assay relative to control; format: protein assay
[8] = molecular target: Receptor tyrosine-protein kinase erbB-4 (Homo sapiens) (UniProt Q15303); assay: Inhibition of recombinant human ERBB4 (706 to 991 residues) assessed as residual activity at 10 uM using poly(Glu, Tyr) 4:1 as substrate at 40 mins in presence of [gamma-33ATP] by scintillation counting based radiometry assay relative to control
[9] = molecular target: Beta-adrenergic receptor kinase 1 (Homo sapiens) (UniProt P25098); assay: Inhibition of recombinant full length human GRK2 assessed as residual activity at 10 uM using casein as substrate at 40 mins in presence of [gamma-33ATP] by scintillation counting based radiometry assay relative to control
Chain of Beta-adrenergic receptor kinase 1 (Homo sapiens) (P25098 whole entry): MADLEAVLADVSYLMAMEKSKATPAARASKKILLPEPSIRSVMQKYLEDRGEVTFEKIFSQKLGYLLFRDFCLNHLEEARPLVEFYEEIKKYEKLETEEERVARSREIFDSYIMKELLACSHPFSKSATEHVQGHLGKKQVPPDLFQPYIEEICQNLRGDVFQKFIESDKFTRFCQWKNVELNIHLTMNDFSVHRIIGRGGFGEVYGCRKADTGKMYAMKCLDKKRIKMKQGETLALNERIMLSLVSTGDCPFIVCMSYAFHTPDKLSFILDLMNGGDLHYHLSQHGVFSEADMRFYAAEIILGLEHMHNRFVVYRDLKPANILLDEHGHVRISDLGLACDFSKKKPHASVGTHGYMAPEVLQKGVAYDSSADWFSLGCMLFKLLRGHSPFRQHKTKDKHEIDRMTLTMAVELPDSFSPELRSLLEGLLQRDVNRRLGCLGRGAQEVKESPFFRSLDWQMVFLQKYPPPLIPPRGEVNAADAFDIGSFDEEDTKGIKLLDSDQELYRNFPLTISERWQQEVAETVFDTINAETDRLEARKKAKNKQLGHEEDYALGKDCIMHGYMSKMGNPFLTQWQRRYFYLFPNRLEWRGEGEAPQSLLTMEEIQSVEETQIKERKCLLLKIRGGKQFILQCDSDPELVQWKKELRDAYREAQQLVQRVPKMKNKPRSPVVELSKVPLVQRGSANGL

[10] = molecular target: Tyrosine-protein kinase JAK1 (Homo sapiens) (UniProt P23458); assay: Inhibition of human JAK1 (866 to end residues) assessed as residual activity at 10 uM using GEEPLYWSFPAKKK as substrate after 40 mins by [gamma-33ATP] radiometric assay relative to control
[11] = molecular target: Mitogen-activated protein kinase kinase kinase 3 (Homo sapiens) (UniProt Q99759); assay: Inhibition of recombinant full length human MEKK3 assessed as residual activity at 10 uM using myelin basic protein as substrate incubated for 120 mins in presence of [gamma-33ATP by scintillation counting based radiometry assay relative to control
[12] = molecular target: Mitogen-activated protein kinase kinase kinase 11 (Homo sapiens) (UniProt Q16584); assay: Inhibition of recombinant human MLK3 assessed as residual activity at 10 uM using by scintillation counting based radiometry assay relative to control
[13] = molecular target: Serine/threonine-protein kinase Nek1 (Homo sapiens) (UniProt Q96PY6); assay: Inhibition of recombinant human NEK1 (1 to 505 residues) assessed as residual activity at 10 uM using RLGRDKYKTLRQI as substrate measured after 40 mins in presence of [gamma33P]ATP by scintillation counting based radiometry assay relative to control
Chain of Serine/threonine-protein kinase Nek1 (Homo sapiens) (Q96PY6 whole entry, the tested form may be a part): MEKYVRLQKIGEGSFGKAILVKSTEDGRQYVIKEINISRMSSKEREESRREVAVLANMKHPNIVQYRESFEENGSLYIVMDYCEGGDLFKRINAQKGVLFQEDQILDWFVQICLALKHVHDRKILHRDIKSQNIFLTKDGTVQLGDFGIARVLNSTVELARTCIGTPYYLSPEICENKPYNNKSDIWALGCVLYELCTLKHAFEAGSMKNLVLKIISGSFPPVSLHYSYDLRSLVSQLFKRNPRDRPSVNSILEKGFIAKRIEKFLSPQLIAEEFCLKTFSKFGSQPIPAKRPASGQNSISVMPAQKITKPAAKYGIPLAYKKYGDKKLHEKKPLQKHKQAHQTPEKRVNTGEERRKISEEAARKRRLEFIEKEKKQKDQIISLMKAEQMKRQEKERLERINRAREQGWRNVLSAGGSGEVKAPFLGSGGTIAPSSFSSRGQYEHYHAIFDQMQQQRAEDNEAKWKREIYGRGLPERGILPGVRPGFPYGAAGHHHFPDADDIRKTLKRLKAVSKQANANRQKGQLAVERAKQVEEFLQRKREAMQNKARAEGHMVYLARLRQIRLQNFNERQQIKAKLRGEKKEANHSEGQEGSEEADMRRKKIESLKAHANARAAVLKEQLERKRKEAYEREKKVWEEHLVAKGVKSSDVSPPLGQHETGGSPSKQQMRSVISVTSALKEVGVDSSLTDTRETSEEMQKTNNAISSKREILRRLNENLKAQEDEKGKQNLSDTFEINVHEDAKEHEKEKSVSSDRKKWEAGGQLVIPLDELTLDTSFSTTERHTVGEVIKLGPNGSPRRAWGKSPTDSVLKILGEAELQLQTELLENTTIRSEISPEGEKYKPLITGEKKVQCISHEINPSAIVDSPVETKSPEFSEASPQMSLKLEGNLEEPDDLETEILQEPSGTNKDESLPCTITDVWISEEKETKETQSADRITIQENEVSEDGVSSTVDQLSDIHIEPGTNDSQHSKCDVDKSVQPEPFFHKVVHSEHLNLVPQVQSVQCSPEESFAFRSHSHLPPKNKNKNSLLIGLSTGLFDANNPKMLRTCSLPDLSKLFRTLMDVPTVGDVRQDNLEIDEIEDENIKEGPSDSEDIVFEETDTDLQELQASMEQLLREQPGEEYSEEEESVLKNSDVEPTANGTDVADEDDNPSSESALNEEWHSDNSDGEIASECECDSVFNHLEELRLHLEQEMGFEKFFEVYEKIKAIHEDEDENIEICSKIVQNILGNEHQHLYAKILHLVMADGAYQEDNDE

[14] = molecular target: Serine/threonine-protein kinase PAK 1 (Homo sapiens) (UniProt Q13153); assay: Inhibition of recombinant human PAK1 (150 to end residues) assessed as residual activity at 10 uM using RRRLSFAEPG as substrate measured after 40 mins in presence of [gamma33P]ATP by scintillation counting based radiometry assay relative to control
Chain of Serine/threonine-protein kinase PAK 1 (Homo sapiens) (Q13153 whole entry): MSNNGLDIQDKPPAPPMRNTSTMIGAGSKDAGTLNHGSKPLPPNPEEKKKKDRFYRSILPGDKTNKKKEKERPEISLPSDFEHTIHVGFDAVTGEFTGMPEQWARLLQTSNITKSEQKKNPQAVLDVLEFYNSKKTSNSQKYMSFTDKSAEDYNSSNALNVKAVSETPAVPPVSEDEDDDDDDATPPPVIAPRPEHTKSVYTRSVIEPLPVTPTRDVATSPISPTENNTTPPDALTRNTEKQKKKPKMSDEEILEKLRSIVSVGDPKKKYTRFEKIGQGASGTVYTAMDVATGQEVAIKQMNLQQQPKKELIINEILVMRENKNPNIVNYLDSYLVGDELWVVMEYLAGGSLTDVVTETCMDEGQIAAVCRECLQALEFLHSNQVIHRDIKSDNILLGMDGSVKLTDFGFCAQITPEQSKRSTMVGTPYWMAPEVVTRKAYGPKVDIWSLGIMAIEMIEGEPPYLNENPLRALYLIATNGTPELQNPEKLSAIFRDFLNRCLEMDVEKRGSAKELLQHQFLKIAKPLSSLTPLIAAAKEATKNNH

[15] = molecular target: Serine/threonine-protein kinase PAK 6 (Homo sapiens) (UniProt Q9NQU5); assay: Inhibition of recombinant human PAK6 (382 to end residues) assessed as residual activity at 10 uM using RRRLSFAEPG as substrate measured after 40 mins in presence of [gamma33P]ATP by scintillation counting based radiometry assay relative to control
Chain of Serine/threonine-protein kinase PAK 6 (Homo sapiens) (Q9NQU5 whole entry, looked up): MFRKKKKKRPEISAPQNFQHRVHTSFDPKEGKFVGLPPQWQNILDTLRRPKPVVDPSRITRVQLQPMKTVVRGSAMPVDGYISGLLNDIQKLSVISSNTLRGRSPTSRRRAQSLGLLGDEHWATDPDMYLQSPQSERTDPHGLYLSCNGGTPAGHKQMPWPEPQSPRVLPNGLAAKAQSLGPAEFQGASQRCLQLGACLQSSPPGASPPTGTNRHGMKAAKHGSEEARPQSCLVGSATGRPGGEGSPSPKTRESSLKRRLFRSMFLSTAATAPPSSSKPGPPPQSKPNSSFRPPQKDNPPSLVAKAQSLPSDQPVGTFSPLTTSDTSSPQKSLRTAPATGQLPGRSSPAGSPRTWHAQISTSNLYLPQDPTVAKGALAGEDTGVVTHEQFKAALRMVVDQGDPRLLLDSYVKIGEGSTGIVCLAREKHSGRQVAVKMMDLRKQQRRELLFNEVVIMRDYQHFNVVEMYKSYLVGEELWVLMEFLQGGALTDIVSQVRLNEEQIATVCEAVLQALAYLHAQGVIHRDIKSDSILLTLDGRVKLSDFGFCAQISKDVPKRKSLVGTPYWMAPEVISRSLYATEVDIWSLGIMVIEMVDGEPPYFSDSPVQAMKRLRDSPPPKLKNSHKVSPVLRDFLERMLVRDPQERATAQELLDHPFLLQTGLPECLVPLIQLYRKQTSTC

[16] = test system: Serine/threonine-protein kinase D1 (Homo sapiens), Q15139 [UNDEFINED MUTATION]; assay: Inhibition of recombinant full-length human PKCmu R135A mutant assessed as residual activity at 10 uM using KKLNRTLSVA as substrate incubated for 40 mins in presence of [gamma33P]ATP by scintillation counting based radiometry assay relative to control
Chain of Serine/threonine-protein kinase D1 (Homo sapiens), Q15139 [UNDEFINED MUTATION] (Q15139 whole entry, looked up, stated change not applied): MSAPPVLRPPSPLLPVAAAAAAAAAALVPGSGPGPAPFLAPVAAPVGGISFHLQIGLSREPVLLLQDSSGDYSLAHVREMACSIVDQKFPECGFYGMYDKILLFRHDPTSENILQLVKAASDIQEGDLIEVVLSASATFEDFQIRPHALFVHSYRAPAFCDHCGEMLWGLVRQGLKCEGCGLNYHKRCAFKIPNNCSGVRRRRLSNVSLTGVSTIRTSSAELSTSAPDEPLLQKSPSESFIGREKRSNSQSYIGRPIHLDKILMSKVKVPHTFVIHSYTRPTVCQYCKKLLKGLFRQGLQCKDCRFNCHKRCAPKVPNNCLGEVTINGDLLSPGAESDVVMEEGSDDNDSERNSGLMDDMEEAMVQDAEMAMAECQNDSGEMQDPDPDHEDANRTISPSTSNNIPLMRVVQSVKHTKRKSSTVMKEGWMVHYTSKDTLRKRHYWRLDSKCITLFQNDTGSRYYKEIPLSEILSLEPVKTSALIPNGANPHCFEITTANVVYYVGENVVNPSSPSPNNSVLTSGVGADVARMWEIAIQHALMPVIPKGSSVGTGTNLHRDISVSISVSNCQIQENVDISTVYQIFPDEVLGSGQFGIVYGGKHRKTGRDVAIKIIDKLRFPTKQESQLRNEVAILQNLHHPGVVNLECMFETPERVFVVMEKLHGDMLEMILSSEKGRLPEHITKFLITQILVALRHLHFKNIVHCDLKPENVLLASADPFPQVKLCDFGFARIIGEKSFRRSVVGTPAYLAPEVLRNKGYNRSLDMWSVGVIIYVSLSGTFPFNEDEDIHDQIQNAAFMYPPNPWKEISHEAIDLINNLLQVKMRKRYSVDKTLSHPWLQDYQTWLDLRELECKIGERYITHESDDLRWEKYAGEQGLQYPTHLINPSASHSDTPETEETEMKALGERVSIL

[17] = molecular target: Macrophage-stimulating protein receptor (Homo sapiens) (UniProt Q04912); assay: Inhibition of recombinant human Ron (983 to end residues) assessed as residual activity at 10 uM using GGMEDIYFEFMGGKKK as substrate incubated for 40 mins in presence of [gamma33P]ATP by scintillation counting based radiometry assay relative to control
[18] = molecular target: Serine/threonine-protein kinase SBK1 (Homo sapiens) (UniProt Q52WX2); assay: Inhibition of recombinant full-length human SBK1 assessed as residual activity at 10 uM using KKLRRTLSVA as substrate incubated for 120 mins in presence of [gamma33P]ATP by scintillation counting based radiometry assay relative to control
[19] = molecular target: Mitogen-activated protein kinase kinase kinase 7 (Homo sapiens) (UniProt O43318); assay: Inhibition of recombinant human TAK1 (1 to 303 residues) assessed as residual activity at 10 uM using casein as substrate incubated for 40 mins in presence of [gamma33P]ATP by scintillation counting based radiometry assay relative to control
Homo sapiens = species on record: Homo sapiens; assay: Inhibition of recombinant human full length PI3K p120gamma R459Q mutant assessed as residual activity at 10 uM using phosphatidylinositol-4, 5-bisphosphate as substrate incubated for 40 mins in presence of [gamma33P]ATP by scintillation counting based radiometry assay relative to control
[20] = test system: PI3-kinase p110-alpha/p85-alpha (Homo sapiens), P27986+P42336 [H1047R]; assay: Inhibition of recombinant full-length human PI3K p110/p85 H1047R mutant assessed as residual activity at 10 uM using phosphatidylinositol-4, 5-bisphosphate as substrate incubated for 40 mins in presence of [gamma33P]ATP by scintillation counting based radiometry assay relative to control

C[C@@H](c1ccccc1)n1nnc2cnc3ccc(-c4cnc5[nH]ccc5c4)cc3c21
Activity [1]: 1%
Activity [2]: 68%
Activity [3]: 64%
Activity [4]: 80%
Activity [5]: 36%
Activity [6]: 79%
Activity [7]: 82%
Activity [8]: 73%
Activity [9]: 92%
Activity [10]: 47%
Activity [11]: 92%
Activity [12]: 73%
Activity [13]: 23%
Activity [14]: 92%
Activity [15]: 74%
Activity [16]: 93%
Activity [17]: 79%
Activity [18]: 113%
Activity [19]: 91%
Activity (Homo sapiens): 16%
Activity [20]: 16%
